# In the NIST ThermoML archive (doi:10.1016/j.jct.2010.12.021):
# Numbers after ± are expanded uncertainties.
# Assay: molar heat capacity at constant pressure
# Details: 101.33 kPa, Liquid, Small sample (50 mg) DSC
smiles,measurement,setting,value
CCCCCC[n+]1cccc2ccccc21.O=S(=O)([N-]S(=O)(=O)C(F)(F)F)C(F)(F)F [1-hexylquinolinium bis(trifluoromethylsulfonyl)amide],molar heat capacity at constant pressure,325.73 K,580.31 ± 59 J/K/mol
same,molar heat capacity at constant pressure,326.33 K,580.35 ± 59 J/K/mol
same,molar heat capacity at constant pressure,326.93 K,580.48 ± 59 J/K/mol
same,molar heat capacity at constant pressure,327.53 K,580.91 ± 59 J/K/mol
same,molar heat capacity at constant pressure,329.93 K,582.05 ± 59 J/K/mol
same,molar heat capacity at constant pressure,330.53 K,582.3 ± 59 J/K/mol
same,molar heat capacity at constant pressure,331.13 K,582.61 ± 59 J/K/mol
same,molar heat capacity at constant pressure,331.73 K,582.85 ± 59 J/K/mol
same,molar heat capacity at constant pressure,332.33 K,583.14 ± 59 J/K/mol
same,molar heat capacity at constant pressure,332.93 K,583.5 ± 59 J/K/mol
same,molar heat capacity at constant pressure,333.53 K,583.82 ± 59 J/K/mol
same,molar heat capacity at constant pressure,334.13 K,584.2 ± 59 J/K/mol
same,molar heat capacity at constant pressure,334.73 K,584.61 ± 59 J/K/mol
same,molar heat capacity at constant pressure,335.33 K,585.06 ± 59 J/K/mol
same,molar heat capacity at constant pressure,335.93 K,585.62 ± 59 J/K/mol
same,molar heat capacity at constant pressure,336.53 K,586.11 ± 59 J/K/mol
same,molar heat capacity at constant pressure,337.13 K,586.52 ± 59 J/K/mol
same,molar heat capacity at constant pressure,337.73 K,586.92 ± 59 J/K/mol
same,molar heat capacity at constant pressure,338.33 K,587.33 ± 59 J/K/mol
same,molar heat capacity at constant pressure,338.93 K,587.69 ± 59 J/K/mol
same,molar heat capacity at constant pressure,339.53 K,587.94 ± 59 J/K/mol
same,molar heat capacity at constant pressure,340.13 K,588.08 ± 59 J/K/mol
same,molar heat capacity at constant pressure,340.73 K,588.35 ± 59 J/K/mol
same,molar heat capacity at constant pressure,341.33 K,588.62 ± 59 J/K/mol
same,molar heat capacity at constant pressure,341.93 K,588.83 ± 59 J/K/mol
same,molar heat capacity at constant pressure,342.54 K,589.03 ± 59 J/K/mol
same,molar heat capacity at constant pressure,343.13 K,589.23 ± 60 J/K/mol
same,molar heat capacity at constant pressure,343.73 K,589.47 ± 60 J/K/mol
same,molar heat capacity at constant pressure,344.33 K,589.68 ± 60 J/K/mol
same,molar heat capacity at constant pressure,344.93 K,589.8 ± 60 J/K/mol
same,molar heat capacity at constant pressure,345.53 K,589.91 ± 60 J/K/mol
same,molar heat capacity at constant pressure,346.13 K,590.01 ± 60 J/K/mol
same,molar heat capacity at constant pressure,346.73 K,590.17 ± 60 J/K/mol
same,molar heat capacity at constant pressure,347.33 K,590.33 ± 60 J/K/mol
same,molar heat capacity at constant pressure,347.93 K,590.52 ± 60 J/K/mol
same,molar heat capacity at constant pressure,348.53 K,590.79 ± 60 J/K/mol
same,molar heat capacity at constant pressure,349.13 K,591.11 ± 60 J/K/mol
same,molar heat capacity at constant pressure,349.73 K,591.46 ± 60 J/K/mol
same,molar heat capacity at constant pressure,350.33 K,591.81 ± 60 J/K/mol
same,molar heat capacity at constant pressure,350.93 K,592.11 ± 60 J/K/mol
same,molar heat capacity at constant pressure,351.53 K,592.4 ± 60 J/K/mol
same,molar heat capacity at constant pressure,352.13 K,592.64 ± 60 J/K/mol
same,molar heat capacity at constant pressure,352.73 K,592.89 ± 60 J/K/mol
same,molar heat capacity at constant pressure,353.33 K,593.12 ± 60 J/K/mol
same,molar heat capacity at constant pressure,353.93 K,593.32 ± 60 J/K/mol
same,molar heat capacity at constant pressure,354.53 K,593.58 ± 60 J/K/mol
same,molar heat capacity at constant pressure,355.13 K,593.86 ± 60 J/K/mol
same,molar heat capacity at constant pressure,355.73 K,594.11 ± 60 J/K/mol
same,molar heat capacity at constant pressure,356.33 K,594.37 ± 60 J/K/mol
same,molar heat capacity at constant pressure,356.93 K,594.62 ± 60 J/K/mol
same,molar heat capacity at constant pressure,357.53 K,594.9 ± 60 J/K/mol
same,molar heat capacity at constant pressure,358.13 K,595.2 ± 60 J/K/mol
same,molar heat capacity at constant pressure,358.73 K,595.42 ± 60 J/K/mol
same,molar heat capacity at constant pressure,359.33 K,595.58 ± 60 J/K/mol
same,molar heat capacity at constant pressure,359.93 K,595.78 ± 60 J/K/mol
same,molar heat capacity at constant pressure,360.53 K,595.96 ± 60 J/K/mol
same,molar heat capacity at constant pressure,361.13 K,596.12 ± 60 J/K/mol
same,molar heat capacity at constant pressure,361.73 K,596.19 ± 60 J/K/mol
same,molar heat capacity at constant pressure,362.33 K,596.29 ± 60 J/K/mol
same,molar heat capacity at constant pressure,362.93 K,596.51 ± 60 J/K/mol
same,molar heat capacity at constant pressure,363.53 K,596.79 ± 60 J/K/mol
same,molar heat capacity at constant pressure,364.13 K,597.06 ± 60 J/K/mol
same,molar heat capacity at constant pressure,364.73 K,597.35 ± 60 J/K/mol
same,molar heat capacity at constant pressure,365.33 K,597.68 ± 60 J/K/mol
same,molar heat capacity at constant pressure,365.93 K,598.06 ± 60 J/K/mol
same,molar heat capacity at constant pressure,366.53 K,598.36 ± 60 J/K/mol
same,molar heat capacity at constant pressure,367.13 K,598.59 ± 60 J/K/mol
same,molar heat capacity at constant pressure,367.73 K,598.82 ± 60 J/K/mol
same,molar heat capacity at constant pressure,368.33 K,599 ± 60 J/K/mol
same,molar heat capacity at constant pressure,368.93 K,599.12 ± 61 J/K/mol
same,molar heat capacity at constant pressure,369.53 K,599.24 ± 61 J/K/mol
same,molar heat capacity at constant pressure,370.13 K,599.38 ± 61 J/K/mol
